Measured values taken from patent US10633338B2, “Binding Function 3 (BF3) site compounds as therapeutics and methods for their use” (THE UNIVERSITY OF BRITISH COLUMBIA, priority 2014, dated 2020).
Where two headings read alike, the source gives them in different places. One block for each compound: values may come before it.

Tests used:
androgen receptor (AR) = target: T1, androgen receptor (AR) (Homo sapiens, UniProt P10275, T878A); test: eGFP cellular AR transcription assay; type: cell-based
T1 construct: stably transfected eGFP-expressing LNCaP human prostate cancer cells (LN-ARR2PB-eGFP) containing an androgen responsive probasin-derived promoter; endogenous in cells; host or cells: LNCaP (LN-ARR2PB-eGFP)
T1 sequence (P10275 1-920 T878A): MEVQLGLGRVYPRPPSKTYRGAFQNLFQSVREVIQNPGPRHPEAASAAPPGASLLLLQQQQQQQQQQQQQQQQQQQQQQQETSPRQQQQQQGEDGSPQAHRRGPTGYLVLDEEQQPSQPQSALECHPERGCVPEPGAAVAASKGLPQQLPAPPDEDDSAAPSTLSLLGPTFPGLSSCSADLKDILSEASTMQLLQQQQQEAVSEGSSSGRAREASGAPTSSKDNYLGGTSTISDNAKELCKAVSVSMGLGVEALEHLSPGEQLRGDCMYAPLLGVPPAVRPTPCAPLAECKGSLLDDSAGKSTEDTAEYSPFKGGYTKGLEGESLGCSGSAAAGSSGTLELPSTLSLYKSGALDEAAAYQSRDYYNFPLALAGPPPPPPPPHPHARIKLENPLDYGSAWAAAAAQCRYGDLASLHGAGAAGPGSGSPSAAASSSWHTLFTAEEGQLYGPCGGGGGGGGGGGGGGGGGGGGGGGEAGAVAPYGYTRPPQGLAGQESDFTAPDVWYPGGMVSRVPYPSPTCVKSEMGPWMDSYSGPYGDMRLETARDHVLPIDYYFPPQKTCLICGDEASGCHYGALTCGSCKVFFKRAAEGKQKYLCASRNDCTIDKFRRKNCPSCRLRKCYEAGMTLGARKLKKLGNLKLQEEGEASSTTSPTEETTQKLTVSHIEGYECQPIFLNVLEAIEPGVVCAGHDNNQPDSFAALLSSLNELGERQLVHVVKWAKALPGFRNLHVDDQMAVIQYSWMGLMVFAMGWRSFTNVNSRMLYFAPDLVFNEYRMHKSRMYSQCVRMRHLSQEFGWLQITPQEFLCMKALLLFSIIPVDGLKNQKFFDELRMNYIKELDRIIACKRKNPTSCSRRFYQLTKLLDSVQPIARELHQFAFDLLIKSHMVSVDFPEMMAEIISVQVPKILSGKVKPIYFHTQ
Summary of the method: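 AR transcriptional activity is read as eGFP expression from a probasin-derived androgen-responsive promoter. Compound titrated 0-100 μM in the presence of 0.1 nM R1881; 35,000 cells/well.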

PSA = test: Prostate Surface Antigen (PSA) assay, PSA excreted into the media; type: cell-based, human; conditions: same plates as eGFP assay
Procedure: The evaluation of PSA excreted into the media was performed in parallel to the eGFP assay using the same plates (see above description). After the cells were incubated for 3 days 150 μl of the media was taken from each well, and added to 150 μl of PBS.

[1] = LN-ARR2PB-eGFP LNCaP cells, 0.1 nM R1881, 3 days, 0-100 μM compound, read-out: IC50 (eGFP)
[2] = Homo sapiens, 72 h, media after 3 days, read-out: IC50 (PSA)
[3] = LN-ARR2PBeGFP LNCaP cells, 0.1 nM R1881, 3 days incubation
[4] = PSA excreted into media, 3 days incubation
[5] = LN-ARR2PBeGFP LNCaP cells, 0.1 nM R1881, 3 days incubation, read-out: eGFP IC50
[6] = Homo sapiens, 72 h, PSA excreted into media, 3 days incubation, read-out: PSA IC50
[7] = LN-ARR2PB-eGFP LNCaP cells, 0.1 nM R1881, 3 days, 0-100 μM compound

IC50 (androgen receptor (AR); [1]): 200 nM
IC50 (PSA; [2]): 230 nM
Compound: CCc1cccc2c(-c3ccc4ccccc4n3)c[nH]c12 [13 567]

Compound: Cc1cccc2c(-c3ccc4c(F)cccc4n3)c[nH]c12 [Compound 13623]
eGFP IC50 (androgen receptor (AR); [3]): Inactive
PSA IC50 (PSA; [4]): Inactive

IC50 (androgen receptor (AR); [5]): 110 nM
IC50 (PSA; [6]): 39 nM
Compound: Cc1cccc2c(-c3cnc4ccccc4n3)c[nH]c12 [Compound 13585]

IC50 (androgen receptor (AR); [5]): 179 nM
IC50 (PSA; [6]): 224 nM
Compound: Cc1c(F)ccc2c(-c3ccc4ccc(F)cc4n3)c[nH]c12 [Compound 13646]

Compound: c1ccc2cc(-c3c[nH]c4ccncc34)ccc2c1 [Compound 13685]
eGFP IC50 (androgen receptor (AR); [3]): Inactive
PSA IC50 (PSA; [4]): Inactive

IC50 (androgen receptor (AR); [5]): 200 nM
IC50 (PSA; [6]): 230 nM
Compound: CCc1cccc2c(-c3ccc4ccccc4n3)c[nH]c12 [Compound 13567]

IC50 (androgen receptor (AR); [1]): 2200 nM
IC50 (PSA; [2]): 2520 nM
Compound: COc1ccc2[nH]cc(C3Nc4ccccc4C3(C)C)c2c1 (stereo not shown) [13 536]

IC50 (androgen receptor (AR); [1]): 660 nM
IC50 (PSA; [2]): 670 nM
Compound: c1ccc(-c2c[nH]c3ncccc23)cc1 [13 739]

IC50 (androgen receptor (AR); [5]): 1700 nM
IC50 (PSA; [6]): 1690 nM
Compound: C[C@@H]1Cc2ccccc2N1c1nc2ccccc2o1 [Compound 13245]

IC50 (androgen receptor (AR); [5]): 290 nM
IC50 (PSA; [6]): 290 nM
Compound: Cc1cc(F)cc2c(-c3ccc4cccc(F)c4n3)c[nH]c12 [Compound 13708]

Compound: Cc1cccc2c(-c3ccc4ncsc4c3)c[nH]c12 [13 757]
IC50 (eGFP) (androgen receptor (AR); [7]): IC50 (eGFP) = Inactive
IC50 (PSA) (PSA; media after 3 days): IC50 (PSA) = Inactive

Compound: Cc1cccc2c(-c3ccc4c(Br)cccc4n3)c[nH]c12 [13 678]
IC50 (eGFP) (androgen receptor (AR); [7]): IC50 (eGFP) = Inactive
IC50 (PSA) (PSA; media after 3 days): IC50 (PSA) = Inactive

IC50 (androgen receptor (AR); [1]): 67 nM
IC50 (PSA; [2]): 58 nM
Compound: Brc1ccc(-c2c[nH]c3ncccc23)cc1 [13 716]

IC50 (androgen receptor (AR); [5]): 800 nM
IC50 (PSA; [6]): 1250 nM
Compound: c1ccc2c(c1)NC(c1c[nH]c3ccccc13)C21CCCCC1 (stereo not shown) [Compound 13534]

IC50 (androgen receptor (AR); [5]): 1010 nM
IC50 (PSA; [6]): 950 nM
Compound: FC(F)(F)c1ccccc1-c1c[nH]c2ccccc12 [Compound 13745]

IC50 (androgen receptor (AR); [1]): 2000 nM
IC50 (PSA; [2]): 1490 nM
Compound: Cn1ccc2cc(-c3ccc4ccccc4c3)ccc21 [13 756]

IC50 (androgen receptor (AR); [5]): 2500 nM
IC50 (PSA; [6]): 1890 nM
Compound: Cc1ccc2ccc(-c3c[nH]c4c(C)c(F)ccc34)nc2c1 [Compound 13660]

IC50 (androgen receptor (AR); [1]): 450 nM
IC50 (PSA; media after 3 days, read-out: IC50 (PSA)): 468 nM
Compound: c1ccc2cc(-c3c[nH]c4cnccc34)ccc2c1 [13 675]

IC50 (androgen receptor (AR); [5]): 100 nM
IC50 (PSA; [6]): 82 nM
IC50 (PSA; [2]): 82 nM
Compound: Fc1ccc2c(-c3ccc4cccnc4c3)c[nH]c2c1 [Compound 13764]

IC50 (androgen receptor (AR); [5]): 1400 nM
IC50 (PSA; [6]): 6610 nM
Compound: c1ccc2ncc(-c3n[nH]c4ccccc34)cc2c1 [Compound 13684]

IC50 (androgen receptor (AR); [5]): 149 nM
IC50 (PSA; [6]): 198 nM
Compound: N#Cc1cc(F)cc2c(-c3ccc4ccc(F)cc4n3)c[nH]c12 [Compound 13730]

Compound: Cc1cccc2c(-c3ccc4c(Br)ccc(Br)c4n3)c[nH]c12 [13 679]
IC50 (eGFP) (androgen receptor (AR); [7]): IC50 (eGFP) = Inactive
IC50 (PSA) (PSA; media after 3 days): IC50 (PSA) = Inactive

Compound: Cc1cccc2c(-c3ccc4cnccc4c3)c[nH]c12 [Compound 13765]
IC50 (eGFP) (androgen receptor (AR); [7]): IC50 (eGFP) = inactive
eGFP IC50 (androgen receptor (AR); [3]): Inactive
PSA IC50 (PSA; [4]): Inactive
IC50 (PSA) (PSA; media after 3 days): IC50 (PSA) = inactive

IC50 (androgen receptor (AR); [5]): 9300 nM
IC50 (PSA; [6]): 6760 nM
Compound: COc1ccc(/N=C/c2c[nH]c3ccccc23)cc1 [Compound 13300]

IC50 (androgen receptor (AR); [5]): 261 nM
IC50 (PSA; [6]): 247 nM
Compound: CNC(=O)c1cccc2nc(-c3c[nH]c4cc(F)c(F)cc34)ccc12 [Compound 13645]

Compound: Fc1cccc2ccc(Cl)nc12 [Compound 13729]
eGFP IC50 (androgen receptor (AR); [3]): Inactive
PSA IC50 (PSA; [4]): Inactive

IC50 (androgen receptor (AR); [5]): 900 nM
IC50 (PSA; PSA excreted into media, 3 days incubation, read-out: PSA IC50): 1230 nM
Compound: Cc1ccccc1CSc1c(C)[nH]c2ccccc12 [Compound 13412]

IC50 (androgen receptor (AR); [1]): 1660 nM
IC50 (PSA; [2]): 610 nM
Compound: Cc1cccc2c(-c3cccnc3)c[nH]c12 [13 655]

IC50 (androgen receptor (AR); [5]): 41 nM
IC50 (PSA; [6]): 41 nM
Compound: Fc1cccc2c(-c3ccc4cccc(Cl)c4n3)c[nH]c12 [Compound 13698]
